The record followed here is PubChem BioAssay (NCI).

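These data come from cells grown in 96-well plates and exposed to compound for 48 hours at five concentrations. At the TGI there is no net growth.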

For one assay, the system named is 786-0 renal. Description: NCI anticancer screen, dose series, 48 h.
On to `O=C(O)CO[C@@]12C#C/C=C\C#C[C@@H]3N(C(=O)Oc4ccccc4)c4ccccc4[C@]14O[C@@]34CCC2`, for which the TGI was over 100 µM.

In turn, `CC(C)(C)C1=C(Br)C(C(C)(C)C)OP1(=O)O` (configuration not stated) displayed a TGI of over 100 µM.

As to `Cc1c(-c2ccccc2)cc(O)c2nc3ccccc3n12`, the TGI was over 100 µM.

For `Cc1cccc(Cl)c1NCC(O)CN1CCN(C)CC1` (configuration not stated), the TGI is over 100 µM.

Turning to `Cc1ccc(C(=O)O)c(/C=C2\Cc3ccc(C)cc3C2=O)c1`, the TGI was over 100 µM.

Take `COc1c(=O)cc2cc[nH]c3cc[nH]c1c23`: the TGI is over 100 µM.

Turning to `CC(C)NC(=O)OCc1c2c(n(C)c1COC(=O)NC(C)C)-c1cc(Cl)c(Cl)cc1CC2`, the TGI is over 100 µM.

In the case of `CCOC(=O)c1sc(=S)n(-c2ccc(Cl)cc2)c1-n1cc(-c2ccccc2)c(C#N)c1N`, the TGI stood at 22.9 µM.

Compound `COC1(OC)N=C(N)C2(C#N)C(c3ccccc3)NC3=C(CCC3)C12C#N` (configuration not stated) returned a TGI of over 100 µM.

For `Cc1cc(C)c2c(=O)cc(-c3cccc4ccccc34)[nH]c2n1`, the TGI is over 100 µM.

With `N#Cc1c(-c2ccc(Cl)cc2)c2c(n(C3OC(CO)C(O)C(O)C3O)c1=S)CCCC2` (configuration not stated), the TGI was over 100 µM.

Regarding `COc1ccc2nc(N/N=C/c3sccc3C)cc(C)c2c1`, the TGI was 27.6 µM.

The compound `Nc1cc([N+](=O)[O-])ccc1C(=O)N1CCC[C@H]1CO` gave a TGI of over 100 µM.

As to `CC[C@@H](C)[C@H](NC(=O)[C@H](Cc1ccccc1)NCC(F)(F)F)C(=O)OC(C)(C)C`, the TGI was over 100 µM.

As to `NC(=Nc1ccccc1Cl)c1ccccc1N`, the TGI is over 100 µM.

`C[C@@H](C(=O)O)N1C(c2ccco2)=C(/C(C=O)=C\c2ccco2)C(=O)/C1=C\c1ccco1` yielded a TGI of over 100 µM.

`O=c1oc2ccccc2c(Nc2ccc3c(c2)Sc2ccccc2O3)c1[N+](=O)[O-]` yielded a TGI of 53.1 µM.

In turn, `O=C(NN1C(=O)C(Cl)C1c1ccc(Cl)cc1)c1c(Cl)c(Cl)c(Cl)c(Cl)c1-c1nc2ccccc2[nH]1` (configuration not stated) yielded a TGI of 47.4 µM.

In another assay the test system is A498 renal. Nature of the assay: NCI anticancer screen, dose series, 48 h.
`O=C(O)CO[C@@]12C#C/C=C\C#C[C@@H]3N(C(=O)Oc4ccccc4)c4ccccc4[C@]14O[C@@]34CCC2` showed a TGI of over 100 µM.

`CC(C)(C)C1=C(Br)C(C(C)(C)C)OP1(=O)O` (configuration not stated) yielded a TGI of over 100 µM.

As for `Cc1c(-c2ccccc2)cc(O)c2nc3ccccc3n12`, the TGI is over 100 µM.

With `Cc1cccc(Cl)c1NCC(O)CN1CCN(C)CC1` (configuration not stated), the TGI is over 100 µM.

The compound `Cc1ccc(C(=O)O)c(/C=C2\Cc3ccc(C)cc3C2=O)c1` returned a TGI of over 100 µM.

The compound `COc1c(=O)cc2cc[nH]c3cc[nH]c1c23` gave a TGI of over 100 µM.

Compound `CC(C)NC(=O)OCc1c2c(n(C)c1COC(=O)NC(C)C)-c1cc(Cl)c(Cl)cc1CC2` gave a TGI of 18.7 µM.

The compound `CCOC(=O)c1sc(=S)n(-c2ccc(Cl)cc2)c1-n1cc(-c2ccccc2)c(C#N)c1N` came in with a TGI of 53.9 µM.

`COC1(OC)N=C(N)C2(C#N)C(c3ccccc3)NC3=C(CCC3)C12C#N` (configuration not stated) showed a TGI of over 100 µM.

`Cc1cc(C)c2c(=O)cc(-c3cccc4ccccc34)[nH]c2n1` returned a TGI of 4.72 µM.

With `N#Cc1c(-c2ccc(Cl)cc2)c2c(n(C3OC(CO)C(O)C(O)C3O)c1=S)CCCC2` (configuration not stated), the TGI was over 100 µM.

Regarding `COc1ccc2nc(N/N=C/c3sccc3C)cc(C)c2c1`, the TGI was 26.9 µM.

Consider `Nc1cc([N+](=O)[O-])ccc1C(=O)N1CCC[C@H]1CO`, for which the TGI was over 100 µM.

Compound `CC[C@@H](C)[C@H](NC(=O)[C@H](Cc1ccccc1)NCC(F)(F)F)C(=O)OC(C)(C)C` showed a TGI of over 100 µM.

Regarding `NC(=Nc1ccccc1Cl)c1ccccc1N`, the TGI is over 100 µM.

On to `C[C@@H](C(=O)O)N1C(c2ccco2)=C(/C(C=O)=C\c2ccco2)C(=O)/C1=C\c1ccco1`, for which the TGI is over 100 µM.

Regarding `O=C(NN1C(=O)C(Cl)C1c1ccc(Cl)cc1)c1c(Cl)c(Cl)c(Cl)c(Cl)c1-c1nc2ccccc2[nH]1` (configuration not stated), the TGI amounted to 63.6 µM.

The test system of the next assay is ACHN renal. Description: NCI anticancer screen, dose series, 48 h.
Regarding `O=C(O)CO[C@@]12C#C/C=C\C#C[C@@H]3N(C(=O)Oc4ccccc4)c4ccccc4[C@]14O[C@@]34CCC2`, the TGI was over 100 µM.

Compound `CC(C)(C)C1=C(Br)C(C(C)(C)C)OP1(=O)O` (configuration not stated) showed a TGI of over 100 µM.

`Cc1c(-c2ccccc2)cc(O)c2nc3ccccc3n12` came in with a TGI of over 100 µM.

`Cc1cccc(Cl)c1NCC(O)CN1CCN(C)CC1` (configuration not stated) yielded a TGI of over 100 µM.

Compound `Cc1ccc(C(=O)O)c(/C=C2\Cc3ccc(C)cc3C2=O)c1` came in with a TGI of over 100 µM.

In turn, `COc1c(=O)cc2cc[nH]c3cc[nH]c1c23` gave a TGI of over 100 µM.

`CC(C)NC(=O)OCc1c2c(n(C)c1COC(=O)NC(C)C)-c1cc(Cl)c(Cl)cc1CC2`: the TGI is over 100 µM.

`CCOC(=O)c1sc(=S)n(-c2ccc(Cl)cc2)c1-n1cc(-c2ccccc2)c(C#N)c1N`: the TGI worked out at 40.9 µM.

Regarding `COC1(OC)N=C(N)C2(C#N)C(c3ccccc3)NC3=C(CCC3)C12C#N` (configuration not stated), the TGI was over 100 µM.

As to `Cc1cc(C)c2c(=O)cc(-c3cccc4ccccc34)[nH]c2n1`, the TGI was over 100 µM.

`N#Cc1c(-c2ccc(Cl)cc2)c2c(n(C3OC(CO)C(O)C(O)C3O)c1=S)CCCC2` (configuration not stated) displayed a TGI of over 100 µM.

The compound `COc1ccc2nc(N/N=C/c3sccc3C)cc(C)c2c1` displayed a TGI of 56.2 µM.

In turn, `Nc1cc([N+](=O)[O-])ccc1C(=O)N1CCC[C@H]1CO` yielded a TGI of over 100 µM.

Take `CC[C@@H](C)[C@H](NC(=O)[C@H](Cc1ccccc1)NCC(F)(F)F)C(=O)OC(C)(C)C`: the TGI is over 100 µM.

For the compound `NC(=Nc1ccccc1Cl)c1ccccc1N`, the TGI was over 100 µM.

`C[C@@H](C(=O)O)N1C(c2ccco2)=C(/C(C=O)=C\c2ccco2)C(=O)/C1=C\c1ccco1` registered a TGI of over 100 µM.

The compound `O=c1oc2ccccc2c(Nc2ccc3c(c2)Sc2ccccc2O3)c1[N+](=O)[O-]` showed a TGI of 44.7 µM.

Regarding `O=C(NN1C(=O)C(Cl)C1c1ccc(Cl)cc1)c1c(Cl)c(Cl)c(Cl)c(Cl)c1-c1nc2ccccc2[nH]1` (configuration not stated), the TGI stood at 43.5 µM.

Another assay concerns CAKI-1 renal. Description: NCI anticancer screen, dose series, 48 h.
With `O=C(O)CO[C@@]12C#C/C=C\C#C[C@@H]3N(C(=O)Oc4ccccc4)c4ccccc4[C@]14O[C@@]34CCC2`, the TGI is over 100 µM.

In turn, `CC(C)(C)C1=C(Br)C(C(C)(C)C)OP1(=O)O` (configuration not stated) displayed a TGI of over 100 µM.

`Cc1c(-c2ccccc2)cc(O)c2nc3ccccc3n12`: the TGI was over 100 µM.

For the compound `Cc1cccc(Cl)c1NCC(O)CN1CCN(C)CC1` (configuration not stated), the TGI was over 100 µM.

For `Cc1ccc(C(=O)O)c(/C=C2\Cc3ccc(C)cc3C2=O)c1`, the TGI was over 100 µM.

Take `COc1c(=O)cc2cc[nH]c3cc[nH]c1c23`: the TGI was over 100 µM.

`CCOC(=O)c1sc(=S)n(-c2ccc(Cl)cc2)c1-n1cc(-c2ccccc2)c(C#N)c1N` returned a TGI of over 100 µM.

`COC1(OC)N=C(N)C2(C#N)C(c3ccccc3)NC3=C(CCC3)C12C#N` (configuration not stated) came in with a TGI of over 100 µM.

For the compound `Cc1cc(C)c2c(=O)cc(-c3cccc4ccccc34)[nH]c2n1`, the TGI is over 100 µM.

`N#Cc1c(-c2ccc(Cl)cc2)c2c(n(C3OC(CO)C(O)C(O)C3O)c1=S)CCCC2` (configuration not stated) gave a TGI of over 100 µM.

The compound `COc1ccc2nc(N/N=C/c3sccc3C)cc(C)c2c1` displayed a TGI of over 100 µM.

Compound `Nc1cc([N+](=O)[O-])ccc1C(=O)N1CCC[C@H]1CO` had a TGI of over 100 µM.

`CC[C@@H](C)[C@H](NC(=O)[C@H](Cc1ccccc1)NCC(F)(F)F)C(=O)OC(C)(C)C`: the TGI was over 100 µM.

In turn, `NC(=Nc1ccccc1Cl)c1ccccc1N` registered a TGI of over 100 µM.
